Test results published in patent publication US20080311126A1, “Antisense Oligonucleotides Directed to Ribonucleotide Reducatase R2 and Uses Thereof in Combination Therapies for the Treatment of Cancer” (Genesense Technologies, Inc, priority 2004, published 2008).
Entries after “also recorded” stand apart in the source; their conditions may differ.

Assays:
[1] = system: MDA-MB-231 human breast cancer cells; experiment: MDA-MB-231 breast tumour xenograft in CD-1 nude mice; format: in vivo
Method: MDA-MB-231 human breast cancer cells (1×10^7 cells in 100 μl of PBS) were subcutaneously injected into the right flank of 6-7 weeks old female CD-1 nude mice. After the size of tumour reached an approximate volume of 100 mm^3, 5 days post tumour cell injection, SEQ ID NO:1, or the scrambled control oligonucleotide (SEQ ID NO:3) were administered by bolus infusion into the tail vein every other day at 10 mg/kg. Control animals received saline alone for the same period. Antitumour effect of SEQ ID NO:1 was further compared to that of taxol or doxorubicin alone or in combination. Taxol was administered intravenously once a week at a dose of 10 mg/kg for three (FIG. 17A) or four weeks (FIG. 17C). Doxorubicin was administered intravenously once a week at a dose of 5 mg/kg for first three weeks (FIG. 17A) or for two weeks (FIG. 17C). All treatments were stopped at day 33 (FIG. 17A) or at day 26 (FIG. 17C), respectively. A day after the last treatment, tumours were excised from the animals and their weights were measured. […] In FIG. 17C, antitumour activities were estimated by the inhibition of tumour volume, which was measured with calipers. Each point represents mean tumour volume calculated from 10 animals per experimental group.

[2] = system: HT-29 human colon cancer cells; experiment: HT-29 colon tumour xenograft in CD-1 nude mice; format: in vivo
Method: HT-29 human colon cancer cells (3×10^6 cells in 100 μl of PBS) were subcutaneously injected into the right flank of 6-7 weeks old female CD-1 nude mice. After the size of tumour reached an approximate volume of 50 mm^3, 4 days post tumour cell injection, mitomycin C was administered by bolus infusion into the tail vein at days 4, 11 and 18 with a dose of 3.5 mg/kg/week. Antitumour effect of mitomycin C was further compared to that of SEQ ID NO:1 in combination with mitomycin C. SEQ ID NO:1 was administered by bolus infusion into the tail vein every day at 6 mg/kg and mitomycin C was administered intravenously at days 4, 11 and 18 with a dose of 3.5 mg/kg/week, one hour after the treatments with SEQ ID NO:1. Control animals received saline alone for the same period as SEQ ID NO:1. All treatments were stopped at day 22. A day after the last treatment, tumours were excised from the animals and their weights were measured.
HT-29 human colon cancer cells (3×10^6 cells in 100 μl of PBS) were subcutaneously injected into the right flank of 5-6 week old female CD-1 nude mice. After the size of tumour reached an approximate volume of 100 mm^3, 7 days post tumour cell injection, SEQ ID NO:1 was administered by bolus infusion into the tail vein every other day at 10 mg/kg. Control animals received saline alone for the same period. Antitumour effect of SEQ ID NO:1 was further compared to that of CPT-11 alone or that of SEQ ID NO:1 in combination with CPT-11. CPT-11 was administered intraperitoneally for 5 days in a row from […] with a dose of 20 mg/kg in 100 μl saline. All treatments were stopped at day 32. A day after the last treatment, tumours were excised from the animals and their weights were measured.
HT-29 human colon cancer cells (3×10^6 cells in 100 μl of PBS) were subcutaneously injected into the right flank of 6-7 week old female CD-1 nude mice. Treatments started at day 5 post tumour cell injection, SEQ ID NO:1 and 5-FU were administered as outlined below: • Groups and treatment: • Group 1. Saline treated group: saline:0.1 ml/2 days, i.v.; • Group 2. SEQ ID NO:1 treated group: 10 mg/kg/2 days in 100 μL saline, i.v.; • Group 3. 5-FU treated group:13 mg/kg/5 days/week (one week on and one week off), i.v.; • Group 4. SEQ ID NO:1 plus 5-FU treated group.
HT-29 human colon cancer cells (3×10^6 cells in 100 μl of PBS) were subcutaneously injected into the right flank of 5-6 week old female CD-1 nude mice. Treatments started 4 days post tumour cell injection, SEQ ID NO: 1 and Capecitabine were administered as outlined below: • Group and Treatment: • Group 1: treated with 0.2 ml vehicle solution for capecitabine, o.p.; • Group 2: treated with 0.1 ml saline, i.v.; • Group 3: treated with 359 mg/kg/day×5/w Capecitabine in 0.2 ml vehicle solution, o.p.; • Group 4: treated with 10 mg/kg/2 days SEQ ID NO:1 in 0.1 ml saline i.v.; • Group 5: treated with 10 mg/kg/2 days SEQ ID NO:1 in 0.1 ml saline, i.v. plus 359 mg/kg/day×5/w capecitabine in 0.2 ml vehicle solution, o.p.

[3] = system: Hela S3 human cervix epitheloid carcinoma cells; experiment: Hela S3 hydroxyurea resistant cervix carcinoma xenograft in SCID mice; format: in vivo
Method: Hela S3 human cervix epitheloid carcinoma cells (5×10^5 cells in 100 μl of PBS) were subcutaneously injected into the right flank of 6-7 weeks old female SCID mice. Hela S3 is a hydroxyurea resistant cell line. After the size of tumour reached an approximate volume of 100 mm^3, 3 days post tumour cell injection, SEQ ID NO:1 was administered by bolus infusion into the tail vein every other day at 10 mg/kg 6 times. Control animals received saline alone for the same period. Antitumour effect of SEQ ID NO:1 was further compared to that of Hydroxyurea or Cisplatin alone or in combination. Hydroxyurea was administered intraperitoneally every day at a dose of 250 mg/kg for 10 days. Cisplatin was administered intravenously once a week for three weeks at a dose of 4 mg/kg. Antitumour activities were estimated by the inhibition of tumour volume, which was measured with caliper. Each point represents mean tumour volume calculated from 10 animals per experimental group. […] As expected, treatment with Hydroxyurea during the same period was ineffective against Hydroxyurea-resistant tumour.

[4] = system: Hela 1 mM cells; experiment: Sensitization to chemotherapeutics by AS-II-2229B-20, relative colony forming efficiency; format: cell-based, human; details: HeLa 1 mM
Method: (§1) Colony forming efficiency was determined using standard protocols. Briefly, the cells were cultured for 24 hours at 37° C. in growth medium with 10% fetal bovine serum. The cells were washed in 5 ml phosphate buffered saline, pH 7.2, once prior to lipofectin +/−oligonucleotide treatment.
(§2) The test oligonucleotides were added to cell cultures in the presence of 2.5 μg of DOTMA/DOPE (Lipofectin; Life Technologies, Inc.) for four hours. The oligonucleotide was tested at 0.2 μM unless otherwise indicated. Controls were the cultures treated with lipofectin but without the oligonucleotide. After 4 hours the medium containing the oligonucleotide was removed and washed with 5 ml of growth medium. The cells were then cultured in growth medium containing 10% fetal bovine serum for seven to ten days. Surviving cells were visualized by methylene blue staining, and colonies were scored. In some experiments cell aliquots were removed from the culture and viability was determined using the trypan blue exclusion test. Results were analyzed as percent of surviving cells compared to control cells.
(§3) Treatment of human tumour cells with very low concentrations of short antisense sequences was tested to determine if these constructs could sensitize the tumour cells to inhibitory effects of other chemotherapeutic drugs.

[5] = system: Hela S3 cells; experiment: as above; format: cell-based, human; details: HeLa S3, drug 20 μM
Method: as §1, §2, §3

[6] = system: Caki-1 human renal carcinoma; experiment: Caki-1 renal tumour xenograft in SCID mice, SEQ ID NO:1 and interferon alpha; format: in vivo; details: Example 4
Method: Cell Line: Human renal carcinoma cell line (Caki-1) was grown as monolayer culture in Minimum essential medium (α-MEM) supplemented with 10% fetal bovine serum (FEBS), 0.1 mM non-essential amino acid, 1.0 mM sodium pyruvate, 100 U/ml penicillin, 100 μg/ml streptomycin and 0.25 μg/ml amphotericin B and 2 mM L-alanyl-L-glutamine at 37° C. in an atmosphere of 5% CO2 in air. The tumour cells were routinely subcultured twice weekly by trypsin-EDTA treatment. The cells were harvested from subconfluent logarithmically growing culture by treatment with trypsin-EDTA and counted for tumour inoculation.
Tumour Inoculation: An acclimation period of at least 7 days was allowed between animal receipt and commencement of tumour inoculation. When the female SCID mice were 6-7 weeks of age (20-25 g), each mouse was subcutaneously (s.c.) injected with 5×10^6 Caki-1 human renal carcinoma cells in 0.1 ml of PBS at the right flank of the mice to induce tumour growth.
Dose-Preparation and Treatment: The dose for SEQ ID NO:1 was formulated using the following procedure. From a concentrated stock solution (usually prepared in ddH2O at a concentration of 50 mg/ml and kept at −80° C.), SEQ ID NO:1 was diluted with saline to achieve a final target concentration of 1 or 2.5 mg/ml on the first day of dosing. Enough SEQ ID NO:1 was diluted so that the compound could be administered by bolus infusion into the tail vein every other day for the duration of the experiment. Recombinant interferon alfa-2b (Intron A™) was utilized according to the dose and treatment schedules below. The treatments were started 7 days after the tumour cell inoculation when the tumour size reached an approximate volume of 125 mm^3. Each treatment group contained 10 tumour-bearing mice. Routes of administration are indicated as follows: intravenous (i.v.) and intratumoural (i:t.).
Groups and Treatments: The following treatment groups were evaluated: • 1. Saline treated group-1: saline 0.1 ml/mouse/48 hours, i.v., n=10 • 2. Saline treated group-2: saline 0.05 ml/mouse/5 days/week, i.t., n=10 • 3. […] Intron A 10^3 unit/5 days/week treated group: 10^3 unit Intron A in 0.05 ml saline, i.t., n=10 • 6. Intron A 10^5 unit/5 days/week treated group: 10^5 unit Intron A in 0.05 ml saline, i.t., n=10 • 7. SEQ ID NO:1 1 mg/kg Plus Intron A 10^3 treated group: “3+5”, n=10 • 8. SEQ ID NO:1 1 mg kg Plus Intron A 10^5 treated group: “3+6”, n=10 • 9. SEQ ID NO:1 2.5 mg/kg Plus Intron A […], n=10 • 10. SEQ ID NO:1 2.5 mg/kg Plus Intron A 10^5 treated group: “4+6”, n=10
Mice received 25 treatments with SEQ ID NO:1 and 30 treatments with Intron A. The dosing schedule for Intron A was: treatment with Intron A for 3 consecutive weeks, 1 week off, and treatment with Intron A again for another 3 consecutive weeks. The dosing schedule for SEQ ID NO:1 was treatment with SEQ ID NO:1 every other day for the duration of the experiment.
Endpoints: The effects of SEQ ID NO:1 and Intron A on tumour growth were determined. Tumour sizes were measured every week from day 7 after the tumour cell inoculation in two dimensions using a caliper, and the volume was expressed in mm^3 using the formula: V=0.5 a×b^2, where a and b are the long and short diameters of the tumour, respectively. Mean tumour volumes calculated from each measurement were then plotted in a standard graph to compare the anti-tumour efficacy to that of controls. A day after the last treatment, tumours were excised from the animals and their weights were measured.
A second independent in vivo study was conducted as described in Example 1 utilizing SCID mice (female, 6 weeks old) and Caki-1 (human renal carcinoma cell line) to test the efficacy of SEQ ID NO:1 in combination with IFN alpha Briefly, 5×10^6 Caki-1 human renal carcinoma cells in 0.1 ml of PBS were injected subcutaneously at the right flank of the mice to induce tumour growth. Treatments started on the seventh day after tumour cell injection. […]

Q: With COc1cccc2c1C(=O)c1c(O)c3c(c(O)c1C2=O)C[C@@](O)(C(=O)CO)C[C@@H]3O[C@H]1C[C@H](N)[C@H](O)[C@H](C)O1 [Doxorubicin] as the compound, how does the “Tumour weight as % of saline control” value ([1]; MDA-MB-231 (breast), Mouse CD-1) read?
A: 41%

Q: Which results are given for CO[C@@]12[C@H](COC(N)=O)C3=C(C(=O)C(C)=C(N)C3=O)N1C[C@@H]1N[C@@H]12 [Mitomycin C, reference compound]?
A: antitumour effect (tumour weight) ([2]; Example 12.1, mitomycin C 3.5 mg/kg/week i.v., SEQ ID NO:1 6 mg/kg every day i.v.): significant delay of tumour growth; Tumour weight as % of saline control ([2]; HT-29 (colon), Mouse CD-1, Mitomycin C study): 15%

Q: How did the “Tumour weight as % of saline control” value ([3]; Hela S3 (cervix), hydroxyurea resistance, SCID) turn out when NC(=O)NO [Hydroxyurea (HU), Hydroxyurea, reference compound] was run?
A: 92%

Q: What about the “antitumour effect (tumour volume)” value ([3]; SEQ ID NO:1 10 mg/kg 6 times, Hydroxyurea 250 mg/kg i.p. 10 days, Cisplatin 4 mg/kg i.v. weekly) of the same compound?
A: ineffective

Q: For O=C(O)C[C@H](NC(=O)CP(=O)(O)O)C(=O)O [PALA, N-(phosphonacetyl)-L-aspartate], which “Relative colony Forming Efficiency” value ([4]; drug 20 μM, with AS-II-2229B-20 0.02 μM) is on record?
A: 108 ± 7.5

Q: What about the “Relative colony Forming Efficiency” value ([4]; drug 20 μM, without AS-II-2229B-20) of the same compound?
A: 377 ± 21

Q: What about the “Relative colony Forming Efficiency” value ([4]; drug 30 μM, with AS-II-2229B-20 0.02 μM) of the same compound?
A: 101 ± 2.0

Q: And the “Relative colony Forming Efficiency” value ([4]; drug 30 μM, without AS-II-2229B-20)?
A: 311 ± 9.5

Q: And the “Relative colony Forming Efficiency” value ([5]; with AS-II-2229B-20 0.02 μM)?
A: 90 ± 10

Q: What about the “Relative colony Forming Efficiency” value ([5]; without AS-II-2229B-20) of the same compound?
A: 350 ± 50

Q: How did the “effect on the efficacy of Intron A” value ([6]; SEQ ID NO:3 2.5 mg/kg plus Intron A 10^5) turn out when “ACGCACTCAGCTAGTGACAC (listed as DNA, chemistry not given here) [SEQ ID NO:3, reference compound]” was run?
A: did not improve the efficacy of Intron A

Q: What about the “anti-tumour efficacy (tumour volume, tumour weight)” value ([6]; oligonucleotide 2.5 mg/kg every 2 days i.v., Intron A 10^5 unit 5 days/week i.t.) of the same compound?
A: no efficacy as a monotherapy

Q: And the “antitumour effect (tumour weight, tumour volume)” value ([1]; oligonucleotide 10 mg/kg every other day i.v., taxol 10 mg/kg, doxorubicin 5 mg/kg i.v. once a week)?
A: no significant anti-tumour activity as a monotherapy; also recorded: does not cooperate with doxorubicin
